Measured values from paper PMC10545747, “Development of cyclopeptide inhibitors of cGAS targeting protein-DNA interaction and phase separation” (Nature Communications, 2023).
Several values for one entry are separate records, joined by “and”; a condition that tells them apart may be missing. Identical values can stand only once. Square brackets hold non-standard residues; d marks the D form. Peptide text beside a SMILES is read from it.

Experiments:
[1] = tested on: THP1 cells stimulated with SATE-cddA, 2’3’-cGAMP or ADU-S100 (STING agonists); experiment: qPCR of IFNB1 mRNA in THP1 cells stimulated by STING agonists; format: cell-based, human; parameters: key to IFNB1 mRNA level (Fig. S7c): relative mRNA level, target CT normalized to GAPDH CT
Procedure: The indicated cells were stimulated with either ISD (Sangon Biotech), HSV-1 (Provided by Dr. Zhengfan Jiang), HSV60mer (Sangon Biotech), SATE-cddA[70], 2’3’-cGAMP (Invivogen, Cat# tlrl-nacga23-1), ADU-S100 (MedChemExpress, Cat# HY-12885A) or Poly(I:C) (Invivogen, Cat# tlrl-pic) after XQ2 or XQ2B treatment. Total RNA was isolated from indicated cells that incubated with the drugs for indicated time or mice tissues by using NucleoZOL reagent (MACHEREY-NAGEL) according to the manufacturer’s instructions. The quantifications of mRNA levels were carried out by real-time PCR using a PerfectStart® Uni RT&qPCR Kit (TransGen Biotech) on the QuantStudio 5 qPCR machine (Applied Biosystems). Samples were carried out in triplicate and the target CT values were normalized to GAPDH CT values. Primers of qPCR used in this study can be found in Supplementary Table S2.
IFNB1 mRNA relative level […]
Supplementary Fig. 7. XQ2B inhibits the activity of cGAS in vitro. […]
(e) THP1 cells were pretreated
Data are representative of
Source data are provided as a Source Data file.

[2] = tested on: Cy5-ISD (45-bp dsDNA ISD); experiment: Microscale thermophoresis (MST) with dsDNA; format: binding; settings: Cy5-ISD 10 nM
THP1-Lucia ISG cells = experiment: Luciferase reporter assay, dsDNA stimulation; format: cell-based, human; parameters: Type I interferon response, luciferase activity, Fig. 1c / luciferase activity, Fig. 2a: scale not given here
Source text: To screen direct cGAS inhibitors targeting protein-DNA interface from our developed focused library of macrocyclic peptides, we applied an RNA-based fluorescent biosensor for 2’,3’-cGAMP to detect cGAS activity in vitro (Supplementary Fig. 1a)[49]. The formation of 2’,3’-cGAMP from ATP and GTP was catalyzed by recombinant human cGAS enzyme (hcGAS-ΔN, residues 147–522, Supplementary Fig. 1b) in the presence of ISD (interferon stimulatory DNA, a 45-bp dsDNA), which was readily quantified by the RNA-based fluorescent biosensor and was further confirmed by ion exchange chromatography (Supplementary Fig. 1c). […] Subsequently, a total of 90 macrocyclic peptides were screened at a concentration of 20 μM (Fig. 1a and Supplementary Fig. 1e), and 4 hits (XQ2, XQ8, XQ19, and XQ46) were obtained for further testing at a cut-off of 40% inhibition (Supplementary Table 1). To evaluate the inhibitory effect of the hits against cGAS in cells, we employed real-time quantitative PCR (qPCR) to examine mRNA levels of IFNΒ1 in THP1 cells. The reported cGAS inhibitor RU.521 was used as the positive control, and the non-active peptide XQ28 in the screening assay was used as the negative control. […] The inhibition of cGAS by these hits was further confirmed in the reporter cell line THP1-Lucia ISG (Invivogen) that expresses secreted luciferase induced by an IRF3-inducible ISG54 promoter (Fig. 1c). The discrepancy between the inhibitory effect of the hits in protein and cellular assays may be attributed to their different cellular permeability.
(§1) THP1-Lucia ISG cells (Invivogen) were seeded into a 96-well plate and incubated with RU.521 (Invivogen) or XQ2 for the indicated time, and then transfected with dsDNA by lipofectamine 2000 (Invitrogen) or infected by HSV-1 with the indicated titer for 24 h. The supernatant was collected and 50 μL QUANTI-Luc Luciferase reagent (Invivogen) was added to 20 μL supernatants per well, and luciferase luminescence was detected by a microplate reader (BioTek Synergy H1) immediately.

[3] = tested on: THP1-Lucia ISG cells infected by HSV-1; experiment: Luciferase reporter assay, HSV-1 infection; format: cell-based, human; settings: for luciferase activity, Fig. 5c: XQ2 10 μM
Procedure: as §1

human cGAS (hcGAS) = human cGAS (hcGAS) (Homo sapiens, UniProt Q8N884); experiment: biochemical; settings: MST
Procedure: The binding ability of XQ2 with Cy5-ISD and XQ2 with human cGAS were tested using NanoTemper Monolith NT.115 instrument (20% LED, 40% MST power) at 25 °C. Serial dilutions of XQ2 were mixed with 10 nM of Cy5-ISD or 100 nM of fluorescent labeled hcGAS, incubated for 10 min at room temperature in HEPES buffer (50 mM HEPES, pH 7.5, 200 mM NaCl, 20 mM MgCl2, 0.05% Tween 20) with or without 1 mM ATP and 0.5 mM GTP or 2 M (NH4)2SO4 (Sigma-Aldrich). Excitation was optimized by varying the power to obtain fluorescence intensities above 200 counts. Data were analyzed by using the MO.Affinity Analysis software.

hcGAS-FL + FAM-ISD = hcGAS-FL + FAM-ISD (Homo sapiens, UniProt Q8N884); experiment: biochemical
Procedure: Purified hcGAS-FL (300 nM) or hcGAS-FL (D191R) (300 nM) and FAM-labeled DNA (FAM-ISD) (40 nM) were incubated with or without XQ2 in buffer (20 mM HEPSE, pH 7.5, 125 mM KCl, 10 mM MgCl2). Samples were dispensed in 30 μ L final volumes per well into a 384-well flat-bottom black plate (Corning 3575). The polarization was detected by a microplate reader (BioTek Synergy H1) with a fluorescence polarization filter cube (excitation wavelength: 485 ± 10 nm; emission wavelength: 528 ± 10 nm) immediately.

Sequence of human cGAS (hcGAS) (Q8N884 whole entry): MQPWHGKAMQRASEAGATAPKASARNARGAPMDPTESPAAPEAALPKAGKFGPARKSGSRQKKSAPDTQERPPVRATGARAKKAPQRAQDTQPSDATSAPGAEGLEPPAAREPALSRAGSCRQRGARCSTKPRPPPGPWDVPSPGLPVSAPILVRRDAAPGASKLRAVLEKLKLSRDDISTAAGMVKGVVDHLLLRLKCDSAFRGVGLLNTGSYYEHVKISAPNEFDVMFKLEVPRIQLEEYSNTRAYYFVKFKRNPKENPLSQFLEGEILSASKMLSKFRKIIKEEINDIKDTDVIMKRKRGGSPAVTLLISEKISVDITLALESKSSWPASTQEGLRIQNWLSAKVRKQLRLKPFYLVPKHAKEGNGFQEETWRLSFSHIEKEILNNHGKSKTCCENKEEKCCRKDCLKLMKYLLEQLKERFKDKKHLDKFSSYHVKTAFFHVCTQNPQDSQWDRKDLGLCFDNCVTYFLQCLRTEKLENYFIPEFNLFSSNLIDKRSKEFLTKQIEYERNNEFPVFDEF
Sequence of hcGAS-FL + FAM-ISD (Q8N884 whole entry): as above

With `CC(C)C[C@@H]1NC(=O)[C@H](CCCNC(=N)N)NC(=O)[C@H](C(C)C)NC(=O)[C@@H]2CCCN2C(=O)[C@@H](Cc2ccccc2)NC(=O)[C@H](CC(C)C)NC(=O)[C@H](CCCNC(=N)N)NC(=O)[C@H]([C@@H](C)O)NC(=O)[C@H](C)NC(=O)[C@@H](Cc2ccccc2)NC1=O` [XQ2B] (cyclo([dF]ATRL[dF]PVRL)) the “IFNB1 mRNA level (Fig. S7c)” value ([1]; 2'3'-cGAMP, XQ2B) was 4003.21 and 3809.06 and 3708.08, the “IFNB1 mRNA level (Fig. S7c)” value ([1]; SATE-cddA, XQ2B) was 747.639 and 650.174 and 712.905 and the “signaling induced by STING agonists” value ([1]; THP1, 10 μM) was “no significant effect on signaling induced by STING agonists”. The “IFNB1 mRNA level (Fig. S7c)” value ([1]; c-di-AM(PS)2, XQ2B) was 9.033 and 9.206 and 10.1658.
In the case of `CC(C)C[C@@H]1NC(=O)[C@H](CCCNC(=N)N)NC(=O)[C@H](C(C)C)NC(=O)[C@@H]2CCCN2C(=O)[C@@H](Cc2ccccc2)NC(=O)[C@H](CC(C)C)NC(=O)[C@H](CCCNC(=N)N)NC(=O)[C@H](C(C)C)NC(=O)[C@H](C)NC(=O)[C@@H](Cc2ccccc2)NC1=O` [XQ2, Cyclo (LfAVRLfPVR)] (cyclo(L[dF]AVRL[dF]PVR)), the “binding with ISD, MST” value [2] is reported as “no binding of XQ2 with ISD”, the “dsDNA-induced luciferase reporter signal” value (THP1-Lucia ISG cells) is reported as “inhibited dsDNA-induced signaling in THP1 cells in a dose-dependent manner with an inhibitory activity comparable to that of RU.521” and the “luciferase activity, Fig. 2a” value (THP1-Lucia ISG cells; Mock (no dsDNA), compound 10 μM, replicate values) is reported as 0.1339 and 0.107 and 0.1281. For the same compound, the “luciferase activity, Fig. 2a” value (THP1-Lucia ISG cells; Mock, 1.25 μM) was 0.09057 and 0.08624 and 0.1133, the “luciferase activity, Fig. 2a” value (THP1-Lucia ISG cells; Mock, 2.5 μM) was 0.08177 and 0.0892 and 0.09714 and the “luciferase activity, Fig. 2a” value (THP1-Lucia ISG cells; Mock, 5 μM) was 0.1148 and 0.09368 and 0.09512. The “luciferase activity, Fig. 2a” value (THP1-Lucia ISG cells; dsDNA 24 h, 1.25 μM) was 0.7893 and 0.9483 and 1.24, the “luciferase activity, Fig. 2a” value (THP1-Lucia ISG cells; dsDNA 24 h, 2.5 μM) was 1.035 and 1.02 and 0.8001 and the “luciferase activity, Fig. 2a” value (THP1-Lucia ISG cells; dsDNA 24 h, 5 μM) was 0.8667 and 0.7097 and 0.78. The “luciferase activity, Fig. 2a” value (THP1-Lucia ISG cells; dsDNA 24 h, compound 10 μM, 3 h pretreatment, replicate values) was 0.4481 and 0.3329 and 0.2712, the “Type I interferon response, luciferase activity, Fig. 1c” value (THP1-Lucia ISG cells; dsDNA 24 h, replicate values) was 0.5575 and 0.4465 and 0.4391 and the “HSV-1-induced luciferase reporter signal” value ([3]; 10 μM) was “further confirmed in the reporter cell line THP1 Lucia ISG”. The “luciferase activity, Fig. 5c” value ([3]; Ctl) was 1.148 and 1.262 and 1.5089, the “luciferase activity, Fig. 5c” value ([3]; HSV-1 1×10^4 pfu 24 h) was 3.199 and 3.457 and 4.259 and the “luciferase activity, Fig. 5c” value ([3]; HSV-1 2×10^4 pfu 24 h) was 5.808 and 6.219 and 6.721. The “luciferase activity, Fig. 5c” value ([3]; HSV-1 5×10^4 pfu 24 h) was 11.1309 and 12.5837 and 12.8036, the Kd (human cGAS (hcGAS); absence of ATP/GTP and (NH4)2SO4 (Mock)) was 45.3 ± 26.9 µM and the Kd (human cGAS (hcGAS); in the presence of (NH4)2SO4 (2M)) was 1.8 ± 0.6 µM. For the same compound, the Kd (human cGAS (hcGAS); in the presence of ATP (1mM) and GTP (0.5mM)) was 4.5 ± 1.6 µM and the IC50 (hcGAS-FL + FAM-ISD) was 19.2 ± 6.7 µM.
